Measurements published in PubChem BioAssay (NCI).
Where “and” joins values, the source holds several entries; their conditions need not be identical. Equal values may be shown once.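 A five-concentration, 48-hour dose response in 96-well plates underlies each endpoint, interpolated linearly between surrounding concentrations. At the GI50, growth is halved. TGI: total growth inhibition.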

Experiments:
Test in all cases: NCI-60 cell line screen, 48 h
EKVX NSCLC = tested on: EKVX NSCLC
HL-60(TB) leukemia = tested on: HL-60(TB) leukemia
K-562 leukemia = tested on: K-562 leukemia
MDA-MB-231 breast = tested on: MDA-MB-231 breast
RXF 393 renal = tested on: RXF 393 renal
SK-OV-3 ovarian = tested on: SK-OV-3 ovarian
SNB-19 CNS = tested on: SNB-19 CNS
SNB-75 CNS = tested on: SNB-75 CNS
SW-620 colon = tested on: SW-620 colon
T-47D breast = tested on: T-47D breast

Compound	TGI (EKVX NSCLC)	TGI (HL-60(TB) leukemia)	TGI (K-562 leukemia)	TGI (MDA-MB-231 breast)	TGI (RXF 393 renal)	TGI (SK-OV-3 ovarian)	TGI (SNB-19 CNS)	TGI (SNB-75 CNS)	TGI (SW-620 colon)	TGI (T-47D breast)	GI50 (EKVX NSCLC)	GI50 (HL-60(TB) leukemia)	GI50 (K-562 leukemia)	GI50 (MDA-MB-231 breast)	GI50 (RXF 393 renal)	GI50 (SK-OV-3 ovarian)	GI50 (SNB-19 CNS)	GI50 (SNB-75 CNS)	GI50 (SW-620 colon)	GI50 (T-47D breast)
COc1cc(OC(=O)c2ccccc2)cc2c1C(=O)C=CC2=O	30.2 µM	3.04 µM	5.36 µM	5.48 µM	24.6 µM	37 µM	56.4 µM	49.2 µM	39.2 µM	4.73 µM	–	–	–	–	–	–	–	–	–	–
N#CC(NC12CC3CC(CC(C3)C1)C2)c1ccc2c(c1)OCO2 (configuration not stated)	> 100 µM	> 100 µM	> 100 µM	> 100 µM	> 100 µM	> 100 µM	> 100 µM	> 100 µM	> 100 µM	> 100 µM	–	–	–	–	–	–	–	–	–	–
CC(C)N(Cc1ccccc1)c1c(S)ssc1=S	8.49 µM	3.12 µM	3.81 µM	5.49 µM	10.1 µM	9.59 µM	> 100 µM	26.9 µM	12.7 µM	18.6 µM	2.2 µM	1.16 µM	0.941 µM	1.77 µM	2.17 µM	2.47 µM	3.76 µM	2.98 µM	2.69 µM	1.17 µM
COc1cc(NC(C)CCCNC2CN3CCC2CC3)c2ncccc2c1 (configuration not stated)	26.7 µM	11 µM	–	15.7 µM	15.4 µM	28.5 µM	32 µM	20.6 µM	27.6 µM	20.5 µM	12.1 µM	2.86 µM	–	3.58 µM	3.44 µM	15.2 µM	15.8 µM	7.07 µM	11.9 µM	4.54 µM
O=C(CCCCCCCCC(=O)N/N=C\c1ccccc1O)N/N=C\c1ccccc1O	> 69.6 µM	0.687 µM	27.8 µM	32.2 µM	2.95 µM	15.6 µM	> 59.4 µM	15.3 µM	24.1 µM	> 49.4 µM	1.53 µM	0.203 µM	0.398 µM	0.225 µM	0.353 µM	0.899 µM	0.763 µM	1.82 µM	1.28 µM	2.89 µM
COC(=O)c1nc(-c2ccccc2)oc1S(=O)(=O)Cc1ccccc1	30.1 µM	6.22 µM	5.29 µM	5.24 µM	3.5 µM	> 100 µM	31.3 µM	27.1 µM	4.14 µM	5.95 µM	14.4 µM	2.3 µM	2.07 µM	2.18 µM	1.87 µM	70.2 µM	16.3 µM	14.1 µM	2.05 µM	2.17 µM
CC1CCC(NC(=O)N(CCCl)N=O)CC1 (configuration not stated)	119 µM	24.1 µM and 72.2 µM	28.9 µM and 119 µM	91.2 µM	33.5 µM and 72.9 µM	148 µM	110 µM	74.4 µM and 66.7 µM	37.4 µM and 71.5 µM	88.1 µM	–	8.98 µM	0.122 µM	–	16.7 µM	–	55 µM	27.3 µM	17.7 µM	–
COc1cc(C[C@H]2c3cc(OC)c(OC)cc3CCN2C)c(Oc2cc3c(cc2OC)-c2c(OC)c(OC)cc4c2[C@H](C3)N(C)CC4)cc1OC	34.6 µM and 32.7 µM	13.9 µM and 19.4 µM	15.6 µM and 5.4 µM	14.9 µM	7.35 µM and 21.3 µM	40 µM and 36.2 µM	41.8 µM and 54 µM	15.3 µM and 24.3 µM	22.6 µM and 32.5 µM	23.4 µM	17.6 µM	5.71 µM	1.49 µM	–	8.62 µM	15.1 µM and 21.1 µM	20.3 µM	9.19 µM	13.3 µM	–
CCC1C2Cc3ccc(O)cc3C1(CC)CCN2C (configuration not stated)	> 100 µM	> 100 µM	> 100 µM	> 100 µM	> 100 µM	> 100 µM	> 100 µM	> 100 µM	> 100 µM	> 100 µM	–	–	–	–	–	–	–	–	–	–
COc1ccc(C2=CC(c3ccc4c(c3)OCO4)c3c(c4ccccc4oc3=O)O2)cc1OC (configuration not stated)	> 100 µM	1.67 µM	–	> 100 µM	> 100 µM	> 100 µM	> 100 µM	> 21.4 µM	> 100 µM	> 100 µM	–	–	–	–	–	–	–	–	–	–
CC(C)(C)n1cc(-c2ccnc(NCCCNS(=O)(=O)c3ccc(C(F)(F)F)cc3)c2)c(-c2cccc(O)c2)n1	3.95 µM	7.74 µM	> 100 µM	3.98 µM	2.89 µM	6.75 µM	3.83 µM	6.04 µM	3.71 µM	6.61 µM	1.82 µM	2.81 µM	2.1 µM	2.13 µM	1.46 µM	2.69 µM	1.98 µM	1.94 µM	1.89 µM	2.24 µM
CCN(CC)CCCC(C)Nc1ccnc2cc(Oc3ccccc3)ccc12 (configuration not stated)	31.8 µM and 98.7 µM	9.38 µM and 41.6 µM	4.88 µM and 7.92 µM	8.41 µM and 21.9 µM	5.82 µM and 11.2 µM	32.2 µM and 78.9 µM	66.3 µM and > 100 µM	15.1 µM and 25.4 µM	14.3 µM and 25.9 µM	3.32 µM and 6.19 µM	14.1 µM and 18.6 µM	3.24 µM and 13.1 µM	1.87 µM and 2.56 µM	2.05 µM and 3.47 µM	1.65 µM and 3.53 µM	15.7 µM and 22.9 µM	15.8 µM and 25.4 µM	2.04 µM and 10.9 µM	3.36 µM and 5.53 µM	1.68 µM and 2.39 µM
CN(C)CCN1C(=O)c2ccccc2N(C)c2ccccc21	> 100 µM	> 100 µM	> 100 µM	> 100 µM	> 100 µM	> 100 µM	> 100 µM	> 100 µM	> 100 µM	> 100 µM	> 100 µM	> 100 µM	> 100 µM	> 100 µM	> 100 µM	> 100 µM	> 100 µM	> 100 µM	> 100 µM	> 100 µM
c1ccc2[nH]c(-c3ccc(-c4nccc5c4[nH]c4ccccc45)cc3)nc2c1	16.8 µM	4.59 µM	5.47 µM	5.83 µM	3.53 µM	15.9 µM	30.4 µM	4.07 µM	8.48 µM	6.19 µM	3.45 µM	2.03 µM	2.34 µM	2.39 µM	1.93 µM	4.37 µM	4.21 µM	1.57 µM	2.79 µM	2.02 µM
CC(C)(C)c1ccc(Oc2nccc(-c3c(-c4ccc(F)cc4)ncn3C3CCNCC3)n2)cc1	7.36 µM	9.1 µM	4.7 µM	7.39 µM	7.07 µM	7.8 µM	7.42 µM	6.15 µM	7.82 µM	8.56 µM	3.6 µM	4.64 µM	0.849 µM	3.87 µM	3.22 µM	4.35 µM	3.73 µM	2.89 µM	3.96 µM	4.46 µM
COc1ccc(C(=O)c2cc(OC)c(OC)c(OC)c2)cc1OC(=O)CCl	> 100 µM	< 0.025 µM	> 100 µM	–	> 100 µM	> 100 µM	> 100 µM	> 100 µM	> 100 µM	97.3 µM	0.832 µM	< 0.0152 µM	< 0.0123 µM	0.0362 µM	0.0441 µM	0.163 µM	< 0.0283 µM	0.0257 µM	< 0.0208 µM	3.03 µM
O=C(O)C(/C=C/c1ccccc1)c1ccccc1 (configuration not stated)	> 100 µM	75.1 µM	> 100 µM	> 100 µM	> 100 µM	> 100 µM	> 100 µM	> 100 µM	> 100 µM	> 100 µM	–	–	–	–	–	–	–	–	–	–
O=C(O)CNC(=O)c1ccc(-c2ccccc2)cc1	> 100 µM	> 100 µM	> 100 µM	> 100 µM	> 100 µM	> 100 µM	> 100 µM	–	> 100 µM	> 100 µM	–	–	–	–	–	–	–	–	–	–
COc1cc(/C=C/C(=O)c2cccc(Nc3nc(Nc4ccccc4)nc(Nc4ccccc4)n3)c2)cc(OC)c1OC	> 100 µM	4.1 µM	> 38.8 µM	> 100 µM	11.1 µM	> 100 µM	> 100 µM	> 100 µM	> 100 µM	> 59 µM	9.94 µM	1.33 µM	1.37 µM	11.7 µM	1.6 µM	43.1 µM	10.1 µM	16 µM	3.73 µM	1.98 µM
Cc1c(C(N)=O)sc2c1C(=O)N(Cc1ccccc1)C1=NN=C(c3ccc(Cl)cc3)CN12	29.8 µM	46.1 µM	> 100 µM	16 µM	7.71 µM	15.8 µM	16.1 µM	23.7 µM	18.4 µM	16.4 µM	4.7 µM	2.59 µM	2.97 µM	3.54 µM	2.16 µM	3.71 µM	3.71 µM	10.6 µM	3.99 µM	3.82 µM
O=[N+]([O-])O.[Cu+2].[NH-]CC[NH-].[NH-]CC[NH-]	> 10 µM	> 10 µM	> 10 µM	> 10 µM	> 10 µM	> 10 µM	> 10 µM	> 10 µM	> 10 µM	> 10 µM	> 10 µM	> 10 µM	> 10 µM	> 10 µM	> 10 µM	> 10 µM	> 10 µM	> 10 µM	> 10 µM	> 10 µM
COc1ccc(/C(COc2ccc3c(=O)cc(-c4ccccc4)oc3c2)=N\O)cc1	> 18 µM	> 50 µM	> 50 µM	22.5 µM	> 50 µM	48.4 µM	> 50 µM	> 45.9 µM	> 50 µM	> 45.8 µM	2.05 µM	> 14 µM	17.5 µM	5.82 µM	15.8 µM	16.1 µM	18.7 µM	> 31.8 µM	> 35.6 µM	21.7 µM
C=C(C)C(=O)Nc1ccc(NC(C)C)cc1	> 100 µM	> 100 µM	> 100 µM	> 100 µM	> 100 µM	> 100 µM	> 100 µM	> 100 µM	> 100 µM	> 100 µM	> 100 µM	> 100 µM	> 100 µM	> 100 µM	> 100 µM	> 100 µM	> 100 µM	> 100 µM	> 100 µM	> 100 µM
Cc1ccc(Nc2n[nH]c(=S)s2)cc1C	> 100 µM	> 100 µM	> 100 µM	> 100 µM	> 100 µM	> 100 µM	> 100 µM	> 100 µM	> 100 µM	> 100 µM	–	–	–	–	–	–	–	–	–	–
C=C1CCC2C3(C)COC(c4ccc(N(C)C)cc4)OC3CCC2(C)C1C/C=C1/C(=O)OCC1O (configuration not stated)	21.9 µM	3.6 µM	3.37 µM	20.8 µM	4.06 µM	50.4 µM	32.3 µM	7.97 µM	4.25 µM	26.3 µM	6.43 µM	1.36 µM	1.22 µM	7.19 µM	1.97 µM	17 µM	16.4 µM	1.94 µM	1.95 µM	6.91 µM
CC/C=C1/C(=O)C=C[C@@H]1C/C=C\CCCC(=O)OC	16.8 µM	6.94 µM	> 100 µM	15.4 µM	3.9 µM	19.5 µM	12.9 µM	33.2 µM	–	16.7 µM	4.8 µM	2.17 µM	0.767 µM	4.43 µM	2.03 µM	7.15 µM	3.27 µM	12.9 µM	–	3.79 µM
O=C1c2ccccc2C(O)(O)C1(O)C1(O)C(=O)c2ccccc2C1(O)O (configuration not stated)	> 100 µM	53.2 µM	–	> 100 µM	81.8 µM	> 100 µM	> 100 µM	72.3 µM	> 100 µM	60.3 µM	–	–	–	–	–	–	–	–	–	–
CN[C@@H](C)C(=O)N[C@H](C(=O)N1CCC[C@H]1C(=O)Nc1snnc1-c1ccccc1)C1CCCCC1	–	48.1 µM	57.7 µM	21.4 µM	40.1 µM	0.723 µM	> 100 µM	> 94.4 µM	> 100 µM	> 100 µM	–	21.7 µM	24.4 µM	0.778 µM	5.18 µM	0.0244 µM	> 100 µM	25.4 µM	> 100 µM	57.5 µM
Cc1cc2c(cc1C)N(C(=O)CCl)CC(=O)N2	–	5.74 µM	29.4 µM	15.9 µM	5.68 µM	24.6 µM	26.2 µM	20.8 µM	5.05 µM	3.99 µM	–	2.69 µM	3.39 µM	4.19 µM	2.46 µM	12.2 µM	12.6 µM	3.39 µM	2.19 µM	1.97 µM
